Reference: patent US12390464B2, “Treatment of EGFR mutant-related cancers using a combination of EGFR and CDK4/6 inhibitors” (BETA PHARMA, INC., priority 2019, dated 2025)
“And” between values parts separate entries of the source, which are not always exact repeats. Equal values may be shown once.

How the values were obtained:
[1] = system: HCC827 tumors (delE746-A750 activating mutation); assay: Antitumor activity in the HCC827 mouse xenograft model; assay type: in vivo; conditions: oral QD; for Tumor Weight: tumors harvested day 35, mean ± SD, n = 8; for Tumor Weight Inhibition Rate: tumors harvested day 35
Protocol: Cell Culture and Implantation. HCC827 cells were cultured in a CO2 incubator in culture media containing modified RPMI (Hyclone, Cat: SH30809.01); 10% fetal bovine serum (Gibco, Cat: 10099-141); 100 U/ml penicillin and 100 μg/ml streptomycin (Hyclone, Cat: SV30010). Cells were digested with 0.25% trypsin (Hyclone, Cat: SH30042.01) and subcultured every four days. When the required cells was in the logarithmic growth phase, the cell counts were collected and the tumors were subcutaneously implanted in Balb/c nude female mice (14-19 g) at 1×10^7/0.2 mL/mouse (50% Matrigel CORNING, Cat: 354234) in the right back side of each mouse. 8 days after implantation, 56 mice with tumor volume of 132-289 mm^3 were selected and randomly divided into 7 groups according to tumor volume and body weight.
Test Sample Preparation Formulation and Administration. A stock solution of 1 as the methanesulfonate salt was prepared at 0.3 mg/mL in normal saline. A stock solution of 2 as the hydrochloride salt was prepared 2.0 mg/mL in sterile water. The vehicle control was a solution of 0.5% sodium carboxymethyl cellulose in sterile water. All stock solutions were stored at 2-8° C. and prepared fresh on a weekly basis. The stock solutions were administered orally either individually or in combination at the indicated salt dosages depicted in FIG. 1 and Table 2 once a day for 14 days. Dosing was suspended when body weight lost more than 15%.
Tumor Volume Determination and Data Analysis. The tumor volumes were determined twice per week by measuring the length and width of each tumor with a Vernier caliper and calculating the tumor volume. All tumors were harvested on day 35 and weighed. The Tumor Weight Inhibition Rate (IRTW%) was calculated via the equation: IRTW%=(1−(TW(treated)/TW(control)))×100%, where TW is defined as tumor weight. Histograms were generated using Prism GraphPad (mean±S.E.M.), and T analysis was used for statistical analysis. A p value less than 0.05 represents a significant difference between groups and a p value less than 0.01 represents a highly significant difference between groups.

[2] = system: kinase domain of the T790M double mutant; conditions: cited from earlier work
[3] = system: MCF7 human breast cancer cell line; conditions: cited from earlier work

| SMILES | Tumor Weight ([1]; 1 at 3 mg/kg alone) | Tumor Weight Inhibition Rate ([1]; 1 at 3 mg/kg alone, 3 mg/kg) | inhibition of EGFR T790M double mutant kinase domain [2] | Tumor Weight Inhibition Rate ([1]; 2 at 20 mg/kg alone) | Tumor Weight ([1]; 2 at 20 mg/kg alone) | in vitro activity in MCF7 cell line [3] |
| --- | --- | --- | --- | --- | --- | --- |
| C=CC(=O)Nc1cc(Nc2nccc(-c3cn(C)c4ccccc34)n2)c(OC)cc1OCCN(C)C [Compound 1, N-[2-[2-(dimethylamino)ethoxy]-4-methoxy-5-[[4-(1-methyl-1H-indol-3-yl)-2-pyrimidinyl]amino]phenyl]-2-propenamide] | 0.1423 ± 0.1152 g | 83.1% and 83.1^f % | effectively inhibits |  |  |  |
| CCN1CCN(Cc2ccc(Nc3ncc(F)c(-c4ccc5nn(C)c(C(C)C)c5c4)n3)nc2)CC1 [Compound 2, N-[5-[(4-ethyl-1-piperazinyl)methyl]-2-pyridinyl]-5-fluoro-4-[2-methyl-3-(1-methylethyl)-2H-indazol-5-yl]-2-pyrimidinamine] |  |  |  | 30.2% | 0.5864 ± 0.2235 g | potent in vitro activity |
